# Test results reported in ChEMBL document CHEMBL1128097, “Synthesis of Nh-acyl--aminoamides on rink resin: Inhibitors of the hematopoietic protein tyrosine phosphatase (HePTP)” (Bioorg Med Chem Lett, 1995).
# Assay: In vitro inhibition of Hematopoietic protein-tyrosine phosphatase using p-nitrophenyl phosphate as substrate.
row,Structure (SMILES),IC50 [µM]
1,CCCCCCC(NC(=O)c1ccc(/C=C/C(=O)O)cc1)C(=O)NCCCC (stereo not drawn),9
2,CC(C)(C)NC(=O)C(NC(=O)c1ccc(/C=C/C(=O)O)cc1)c1ccccc1 (stereo not drawn),4
3,O=C(O)/C=C/c1ccc(C(=O)NC(C(=O)NC2CCCCC2)c2ccccc2)cc1 (stereo not drawn),6.2
4,CCCCCCC(NC(=O)c1ccc(/C=C/C(=O)O)cc1)C(=O)NCC(=O)OC (stereo not drawn),7.2
5,CCCCCCC(NC(=O)c1ccc(/C=C/C(=O)O)cc1)C(=O)NC(C)(C)C (stereo not drawn),7.5
6,CCCCCCC(NC(=O)c1ccc(/C=C/C(=O)O)cc1)C(=O)NCC(=O)OCC (stereo not drawn),10
7,CCCCCCC(NC(=O)c1ccc(/C=C/C(=O)O)cc1)C(=O)NC1CCCCC1 (stereo not drawn),9
8,CCCCCCC(NC(=O)c1ccc(/C=C/C(=O)O)cc1)C(=O)NCC(=O)O (stereo not drawn),7.5

# Now from value to compound:
row,IC50 [µM],Structure (SMILES)
1,20.2,COC(=O)CNC(=O)C(NC(=O)c1ccc(/C=C/C(=O)O)cc1)c1ccccc1 (stereo not drawn)
2,10.4,O=C(O)/C=C/c1ccc(C(=O)NC(C(=O)NCC(=O)O)c2ccccc2)cc1 (stereo not drawn)
3,6,CCCCCCC(NC(=O)c1ccc(/C=C/C(=O)O)cc1)C(=O)NCc1ccccc1 (stereo not drawn)
4,3.9,O=C(O)/C=C/c1ccc(C(=O)NC(C(=O)NCc2ccccc2)c2ccccc2)cc1 (stereo not drawn)
5,6.7,CCCCNC(=O)C(NC(=O)c1ccc(/C=C/C(=O)O)cc1)c1ccccc1 (stereo not drawn)
6,6.1,CCCC(NC(=O)c1ccc(/C=C/C(=O)O)cc1)C(=O)NCc1ccccc1 (stereo not drawn)
7,9.6,CCOC(=O)CNC(=O)C(NC(=O)c1ccc(/C=C/C(=O)O)cc1)c1ccccc1 (stereo not drawn)
8,6.3,CCCCC(NC(=O)c1ccc(/C=C/C(=O)O)cc1)C(=O)NCc1ccccc1 (stereo not drawn)
9,7.2,CC(NC(=O)c1ccc(/C=C/C(=O)O)cc1)C(=O)NCc1ccccc1 (stereo not drawn)
10,15,CCC(NC(=O)c1ccc(/C=C/C(=O)O)cc1)C(=O)NCc1ccccc1 (stereo not drawn)
